Assay [1] addresses α4β2*. As to conditions: read-out: α4β2* Ki, cited from earlier work.
The target in assay [2] is (α1)2β1γδ. Particulars: read-out: (α1)2β1γδ Ki, cited from earlier work.
The target in assay [3] is α3β4*. Particulars: read-out: α3β4* Ki, cited from earlier work.
Assay [4] addresses α7*. Particulars: read-out: α7* Ki, cited from earlier work.
Assay [5] addresses α7 nAChR (Homo sapiens, UniProt P36544). Nature of the assay: Two-electrode voltage clamp, nAChRs expressed in Xenopus oocytes. In kind it is cell-based. Particulars: 1 or 10 µM, relative to ACh control; co-applied at 1 µM with ACh.
The target of assay [6] is α3β4 nAChR (Homo sapiens, UniProt P30926+P32297). The assay is described as above. In kind it is cell-based. As to conditions: 1 or 10 µM, relative to ACh control; co-applied at 1 µM with ACh.
Assay [7] has as its target α4β2* nAChR (Rattus norvegicus, UniProt P09483+P12390). Kind of assay: Competition binding assay using.
In assay [8] the target is (α1)2β1γδ nAChR (Tetronarce californica, UniProt P02710+P02714+P02718). Nature of the assay: Competition binding assay using. Details: species or system Torpedo californica.
In assay [9] the target is muscle nAChR α1β1εδ (Mus musculus, UniProt P02716+P04756+P20782). Nature of the assay: Two-electrode voltage clamp, nAChRs expressed in Xenopus oocytes. The format is cell-based. Particulars: 1 or 10 µM, relative to ACh control; co-applied at 1 µM with ACh.

This is an account of results in article PMC4519239 (Bioorganic & medicinal chemistry, 2013).

Where two headings read alike, the source gives them in different places. Bounds are passed on as bounds.

In the case of `O=c1cccc2n1C[C@@H]1CNC[C@H]2C1` [3 (Cyt), cytisine], the Ki in assay [1] (ref [41],[44],[45]) is 0.122 nM.

In the case of `O=c1c(-c2cccnc2)ccc2n1C[C@@H]1CNC[C@H]2C1` [4 (3PC), 3-(pyridine-3-yl)-cytisine], the Ki in assay [2] (ref [41],[44],[45]) is over 5000 nM. For `c1cnc2cc3c(cc2n1)[C@@H]1CNC[C@H]3C1` [5 (Var), varenicline], the Ki was 240 nM in [3] (ref [42]), 322 nM in assay [4] (ref [42]), 0.06 nM in [1] (ref [42]) and 3540 nM in [2] (ref [42]). Take `O=C1CCCC2[C@H]3CNC[C@H](C3)CN12` (some centres unmarked) [Compound 6, tetrahydrocytisine]: the Ki in [3] (ref [44]) was 385 ± 6 nM; in [4] (ref [44]), 2000 nM; in [1] (ref [44]), 17 nM.

With `CN1C[C@@H]2C[C@H](C1)C1CCCC(=O)N1C2` (some centres unmarked) [Compound 7], the Ki in assay [3] (ref [44]) was 2450 nM; in [4] (ref [44]), 10000 nM; in [1] (ref [44]), 34 nM; in assay [2] (ref [44]) it was over 50000 nM. `CC(=O)N1C[C@@H]2CNC[C@@H](C2)C1.O=C(O)/C=C/C(=O)O` [Compound 8, (1R, 5S)-1-(3,7-diazabicyclo[3.3.1]nonan-3-yl)ethanone]: the “functional profile at α7” value in assay [5] is recorded as “agonism”. As to `CCC(=O)N1C[C@@H]2CNC[C@@H](C2)C1.O=C(O)/C=C/C(=O)O` [Compound 15, (1R,5S)-1-(3,7-diazabicyclo[3.3.1]nonan-3-yl)propan-1-one], the “functional profile at α3β4*” value in assay [6] was “Possible agonistic effects”. For the compound `CCCC(=O)N1C[C@@H]2CNC[C@@H](C2)C1.O=C(O)/C=C/C(=O)O` [Compound 16, (1R,5S)-1-(3,7-diazabicyclo[3.3.1]nonan-3-yl)butan-1-one], the “fold higher affinity for the α4β2* receptor” value in assay [7] (α4β2* versus α3β4*) was “about 74 fold”. In addition, in [5], the “functional profile at α7” value was “agonism”. The “functional profile at α3β4*” value in [6] is on record as “Possible agonistic effects”. `O=C(O)/C=C/C(=O)O.O=C(c1cccc(Cl)c1)N1C[C@@H]2CNC[C@@H](C2)C1` [Compound 22, (1R,5S)-3,7-diazabicyclo[3.3.1]nonan-3-yl(3-chlorophenyl)methanone]: the “affinity for the α4β2* subtype in words” value in assay [7] was “inactive”. The same measure, in the same setting: under `O=C(O)/C=C/C(=O)O.O=C(c1cccc([N+](=O)[O-])c1)N1C[C@@H]2CNC[C@@H](C2)C1` [Compound 23, (1R,5S)-3,7-diazabicyclo[3.3.1]nonan-3-yl(3-nitrophenyl)methanone] stands “inactive”. As to `CS(=O)(=O)N1C[C@@H]2CNC[C@@H](C2)C1` [Compound 34, (1R,5S)-3-(methylsulfonyl)-3,7-diazabicyclo[3.3.1]nonane], the Ki in assay [8] is over 10000 nM. For `Cl.O=S(=O)(c1ccc(Br)cc1)N1C[C@@H]2CNC[C@@H](C2)C1` [Compound 39, (1R,5S)-3-(4-bromophenylsulfonyl)-3,7-diazabicyclo[3.3.1]nonane], in assay [7], the “affinity for the α4β2* subtype in words” value is given as “nonactive”. In the case of `O=[N+]([O-])c1ccc(S(=O)(=O)N2C[C@@H]3CNC[C@@H](C3)C2)cc1` [Compound 40, (1R,5S)-3-(4-nitrophenylsulfonyl)-3,7-diazabicyclo[3.3.1]nonane], the Ki in [8] is over 10000 nM.

As for `CN(C)C(=O)N1C[C@@H]2CNC[C@@H](C2)C1.O=C(O)/C=C/C(=O)O` [Compound 41, (1R,5S)-N,N-dimethyl-3,7-diazabicyclo[3.3.1]nonane-3-carboxamide], the “fold lower affinity for the α4β2* nAChR” value in assay [7] (compared to carboxamide analog 17) amounted to 10 fold. `CCN(CC)C(=O)N1C[C@@H]2CNC[C@@H](C2)C1.O=C(O)/C=C/C(=O)O` [Compound 42, (1R,5S)-N,N-diethyl-3,7-diazabicyclo[3.3.1]nonane-3-carboxamide]: in assay [7], the “affinity for the α4β2* subtype in words” value is reported as “lost its affinity”. Regarding `O=C(C1CCCC1)N1C[C@@H]2CNC[C@@H](C2)C1.O=C(O)/C=C/C(=O)O` [Compound 43, (1R,5S)-3,7-diazabicyclo[3.3.1]nonan-3-yl(cyclopentyl)methanone], in assay [5], the “functional profile at α7” value is on record as “agonism”. Further, the “functional profile at α3β4*” value in assay [6] was “Possible agonistic effects”. On to `O=C(CC1CCCC1)N1C[C@@H]2CNC[C@@H](C2)C1.O=C(O)/C=C/C(=O)O` [Compound 55, 1-((1R,5S)-3,7-diazabicyclo[3.3.1]nonan-3-yl)-2-cyclopentylethanone], for which, in [9], the “functional profile at muscle type” value was “apparent antagonistic activity”. In addition, the “functional profile at α7” value in assay [5] is reported as “apparent antagonistic activity”. Further, in assay [6], the “functional profile at α3β4*” value is “essentially no effect”. As for `O=C(N1CCCC1)N1C[C@@H]2CNC[C@@H](C2)C1.O=C(O)/C=C/C(=O)O` [Compound 67, (1R,5S)-3,7-diazabicyclo[3.3.1]nonan-3-yl(pyrrodin-1-yl)methanone], the “affinity for the α4β2* subtype in words” value in assay [7] is listed as “not active”. In addition, in assay [8], the Ki is over 10000 nM. On to `O=C(N1CCC(Cc2ccccc2)CC1)N1C[C@@H]2CNC[C@@H](C2)C1` [Compound 69, (1R,5S)-3,7-diazabicyclo[3.3.1]nonan-3-yl(4-benzylpiperidin-1-yl)methanone], for which the Ki in [8] was over 5000 nM. As for `CC(=O)N1C[C@@H]2C[C@@H](CN(C)C2)C1` [Compound 70, 1-((1R,5S)-7-methyl-3,7-diazabicyclo[3.3.1]nonan-3-yl)ethanone], the “fold lower affinity for the α4β2* subtype” value in assay [7] (compared to acetylbispidine 8) amounted to 35 fold. With `C1NCC2CNCC1C2` [bispidine, 3,7-diazabicyclo[3.3.1]nonane], the “functional profile at α7” value in assay [5] was “weak activation”.
